Assay results from US20230248025A1 (priority 2020, published 2023).
“And” between values parts separate entries of the source, which are not always exact repeats. Identical values can stand only once.

Experiments:
[1] = Color and stability study in emulsified cooked sausage (visual, L*a*b*, hue angle, delta a*, delta E); type: physicochemical
[2] = pH of emulsified cooked sausage modalities before and after cooking; type: physicochemical
[3] = test system: total flora; assay: Total plate count in cooked emulsified sausage during storage; type: cell-based
[4] = test system: lactic flora; assay: Lactic flora in cooked emulsified sausage during storage; type: cell-based
[5] = test system: Listeria monocytogenes; assay: Challenge test Listeria in fresh ground sausage; type: cell-based
[6] = test system: Clostridium botulinum (group II type B); type: cell-based
[7] = test system: lactic acid bacteria; assay: Endogenous lactic acid bacteria in cooked emulsified sausage model; type: cell-based
[8] = test system: toxins of C. botulinum; set-up: species or system Clostridium botulinum; settings: in vivo
[9] = test system: Listeria monocytogenes; settings: emulsified sausage; 4° C. then 8° C.
[10] = cooked emulsified sausage, d0 to d21
[11] = emulsified sausage, modalities 3-6 also contain 3000 ppm Natstabil M2 blend1

O=NO [Nitrite]
sausage color after 21 days of storage (visual) ([1]; 10 days at 4° C. and 11 days at 8° C.): slightly degraded (pale orange shade) | a* value over time [1, 10]: a* values more important than control, stable over time | b* value over time [1, 10]: slight increase of b* value at d21 | meat color before cooking (visual) [1, 11]: grey | sausage color after cooking (visual) [1, 11]: light pink | pH after cooking d0 [2]: 6.48 | pH before cooking [2]: 6.31 | pH d7 [2]: 6.43 | pH d14 [2]: 6.47 | pH d21 [2]: 6.47 | total flora growth [3]: normal growth | lactic flora growth [4]: normal growth | Δ log cfu/g versus untreated control ([5]; d4): < −0.5 log cfu/g | Δ log cfu/g versus untreated control ([5]; d8): < −0.5 log cfu/g | C. botulinum (spores + vegetative cells) D0 before cooking [6]: 250 CFU/g and 450 CFU/g and 400 CFU/g | C. botulinum (spores + vegetative cells) Day 30 [6]: <5 CFU/g and 5 CFU/g | C. botulinum (spores + vegetative cells) Day 40 [6]: 5 CFU/g and <5 CFU/g | C. botulinum (spores only) D0 after cooking [6]: <5 CFU/g and 5 CFU/g | C. botulinum (spores only) Day 21 [6]: <5 CFU/g | C. botulinum (spores only) Day 30 [6]: <5 CFU/g | C. botulinum (spores only) Day 40 [6]: <5 CFU/g | Lactic acid bacteria Day 40 ([7]; 14 days at 4° C., 2 h at 20° C. and 26 days at 8° C.): <5 CFU/g | Lactic acid bacteria D0 after cooking ([7]; inoculated sausage model): <5 CFU/g | Detection of toxins of C. botulinum, positive samples of 5, Day 21 [8]: 0/5 | Detection of toxins of C. botulinum, positive samples of 5, Day 40 [8]: 0/5 | production of C. botulinum toxin [8]: inhibit the production of toxin | Listeria growth during shelf-life [9]: cannot limit the growth

lactate
total flora growth [3]: normal growth | lactic flora growth [4]: normal growth | Δ log cfu/g versus untreated control ([5]; d8): −0.9 log cfu/g
